The values that follow come from US12344620B2, “BRD4 inhibitor compound in solid form and preparation method therefor and use thereof” (CSPC ZHONGQI PHARMACEUTICAL TECHNOLOGY (SHIJIAZHUANG) CO., …, priority 2019, dated 2025).

Data set [1] concerns Human breast cancer MDA-MB-231_luc cells. Nature of the data set: In vivo pharmacodynamics, MDA-MB-231_luc subcutaneous xenograft tumor model. The following applies: 50 mg/kg PO BID x 21 days. As to the method: • Species: mouse • Strain: BALB/c nude mouse • Week-age and weight: 6-8 weeks of age, 18-22 grams of body weight • Sex: Female • Supplier: Shanghai Sippr-BK laboratory animal Co. Ltd.
Human breast cancer MDA-MB-231_luc cells were cultured in monolayer in vitro and the culture conditions were RPMI-1640 culture medium (supplier: Gibco; article number: 22400-089; manufacturing batch number: 4868546) with 10% fetal bovine serum, 100 U/ml penicillin and 100 μg/mL streptomycin. The culture was performed at 37° C. in 5% CO2. Conventional digestion treatment with pancreatin-EDTA for passage was carried out twice a week. When the cells were in the exponential growth phase, the cells were harvested, counted, and inoculated. […]
The experiment index was to investigate whether tumor growth was inhibited, delayed or cured. Tumor diameter was measured twice a week with vernier calipers. […]
The tumor inhibition effect of the compound was evaluated by TGI (%) or relative tumor proliferation rate T/C (%). […]
Relative tumor proliferation rate T/C (%) was calculated according to the below equation: T/C %=TRTV/CRTV×100% (TRTV: RTV of the treatment group; CRTV: RTV of the negative control group). The relative tumor volume (RTV) was calculated according to the results of the tumor measurement. […]

Data set [2] is described as follows: In vivo pharmacokinetics test in mice. The conditions noted are these: mouse, plasma, po; female Balb/c mice, intragastric, 3 mg/kg; read-out: Bioavailability F. As to the method:
Female Balb/c mice were used as test animals. The compound of formula (I) was administrated intravenously and intragastrically to mice, then the drug concentrations in the plasma at different time points were determined by the LC/MS/MS method. The in vivo pharmacokinetic behavior of the compound of formula (I) in mice was studied, and its pharmacokinetic characteristics were evaluated.
Sixteen healthy adult female Balb/c mice were divided into four groups according to the principle of similar body weight, with four mice in each group. The animals were purchased from Shanghai Lingchang BioTech Co., Ltd. of Shanghai SLAC Laboratory Animal Co., Ltd., and the animal production license number was SCXK (Shanghai) 2013-0018.
An appropriate amount of the sample was taken, 5% final volume of DMSO was added, and then 95% final volume of 20% HP-β-CD was added. The mixture was ultrasonically stirred to obtain a 0.5 mg/mL clear solution. After filtration, it was used for the intravenous administration. […]
The LC/MS/MS method was used to measure the content of the compound to be tested in the plasma after the intravenous and intragastric administration to the mice. The linear range of the method was 2.00-6000 nmol/L; the plasma samples were analyzed after the protein precipitation by acetonitrile treatment.

For data set [3], the target named is hERG potassium ion channel (Homo sapiens (Human), UniProt Q12809). Nature of the data set: hERG potassium channel current, automatic patch-clamp QPatch, CHO-hERG cells. The following applies: highest test concentration 40 μM. The data set is classed as cell-based. As for the experimental part: The effect of the compound of formula (I) on the hERG potassium channel current was investigated by adopting CHO (Chinese Hamster ovary) cell stably expressing the hERG potassium ion channel and using the fully automatic patch-clamp QPatch technology.
CHO-hERG cells were cultured in a 175 cm^2 culture flask. After the cell density increased to 60-80%, the culture medium was removed, the cells were washed once with 7 mL PBS, and then 3 mL Detachin was added for digestion.
After the digestion was complete, 7 mL of culture medium was added for neutralization, and then the mixture was centrifuged. The supernatant was removed, and then 5 mL of culture medium was added for resuspension to ensure that the cell density was 2-5×10^6/mL. […]
The single-cell high-impedance sealing and the whole-cell mode formation process were all automatically completed by the Qpatch instrument. […] The data were recorded for 2 minutes, then extracellular fluid was given, and then the data were recorded for 5 minutes. […] The experimental data were analyzed by XLFit software.

A value given as a limit tells only on which side of the number the result lay.

Sequence of hERG potassium ion channel (Q12809 whole entry): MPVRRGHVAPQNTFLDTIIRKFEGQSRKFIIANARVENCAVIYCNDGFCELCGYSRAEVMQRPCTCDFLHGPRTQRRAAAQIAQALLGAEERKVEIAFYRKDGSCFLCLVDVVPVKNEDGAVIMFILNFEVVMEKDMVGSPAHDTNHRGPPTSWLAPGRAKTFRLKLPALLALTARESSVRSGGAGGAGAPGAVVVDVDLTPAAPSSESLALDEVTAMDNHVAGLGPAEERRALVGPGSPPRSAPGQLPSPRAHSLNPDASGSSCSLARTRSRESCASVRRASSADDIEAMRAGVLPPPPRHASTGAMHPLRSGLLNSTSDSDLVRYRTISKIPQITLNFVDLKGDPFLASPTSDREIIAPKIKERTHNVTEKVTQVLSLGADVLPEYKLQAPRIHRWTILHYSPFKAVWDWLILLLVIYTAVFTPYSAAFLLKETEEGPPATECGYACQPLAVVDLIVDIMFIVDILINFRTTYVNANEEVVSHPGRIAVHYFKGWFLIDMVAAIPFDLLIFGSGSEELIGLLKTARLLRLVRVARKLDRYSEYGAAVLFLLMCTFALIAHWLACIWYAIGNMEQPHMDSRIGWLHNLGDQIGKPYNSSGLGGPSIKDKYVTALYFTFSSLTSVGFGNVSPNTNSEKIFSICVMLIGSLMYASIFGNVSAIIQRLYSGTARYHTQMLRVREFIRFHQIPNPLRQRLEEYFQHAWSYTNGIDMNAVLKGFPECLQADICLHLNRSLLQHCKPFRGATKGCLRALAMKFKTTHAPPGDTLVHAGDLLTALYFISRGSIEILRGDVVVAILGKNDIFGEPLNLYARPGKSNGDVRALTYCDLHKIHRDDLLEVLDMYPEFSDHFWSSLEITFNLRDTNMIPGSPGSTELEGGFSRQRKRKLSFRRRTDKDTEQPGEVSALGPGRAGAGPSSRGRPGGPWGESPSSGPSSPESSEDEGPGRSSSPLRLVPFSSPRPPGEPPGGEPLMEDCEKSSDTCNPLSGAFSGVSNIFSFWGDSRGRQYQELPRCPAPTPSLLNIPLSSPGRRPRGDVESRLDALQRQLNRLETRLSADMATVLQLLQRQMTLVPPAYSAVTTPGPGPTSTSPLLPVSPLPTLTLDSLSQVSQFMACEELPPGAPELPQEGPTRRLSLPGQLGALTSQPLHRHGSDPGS

Consider `Cc1sc2c(c1C)C(c1ccc(Cl)cc1)=N[C@@H](CC(=O)Nc1ccc3c(c1)COC3=O)c1nnc(C)n1-2` [Compound of formula (I)], for which, in data set [1], the “change in body weight of the animals” value is “no significant change” and the tolerability result is recorded as “well tolerated”. In addition, in data set [2], the bioavailability was 37.5%. For the same molecule, in data set [3], the concentration for half-maximal inhibition (IC50) is > 40 µM.
